In patent US20050101595A1, “N-containing cycloalkyl-substituted amino-thiazole derivatives and pharmaceutical compositions for inhibiting cell proliferation and methods for their use” (PFIZER INC., priority 2003, published 2005):
pIC50, pKi: −log10 of the molar value. Read-outs that look alike come from different tables or passages of the source.

Key:
[1] = biological target: human CDK4 and genetically truncated (1-264) cyclin D3 (Homo sapiens, UniProt P11802); experiment: Inhibition of CDK4/Cyclin D Retinoblastoma Kinase Activity; type: biochemical; conditions: apparent Ki, CDK4/truncated cyclin D3, Rb fragment substrate, 25 μM ATP
Summary of the method: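 Read-out: 32P/33P incorporation into Rb fragment (386-928) captured on nitrocellulose, phosphorimager. Enzyme 5 nM CDK4/cyclin D3(1-264) from insect cells; ATP 25 μM, pH 7.4, 30 °C, 20 min (60 min for tight binders). Ki from competitive fits.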

CDK2/Cyclin A = CDK2/Cyclin A (Homo sapiens, UniProt P24941); experiment: Inhibition of CDK2/Cyclin A Retinoblastoma Kinase Activity; type: biochemical; conditions: apparent Ki, CDK2/proteolyzed cyclin A, Rb fragment substrate, 25 μM ATP
Summary of the method: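 Human CDK2, baculovirus/insect-cell expressed, complexed with proteolyzed cyclin A (10 nM or 19 nM CDK2) phosphorylates an Rb fragment with 25 μM [32P/33P]ATP at pH 7.4, 30° C, for 60 or 75 minutes under initial-rate conditions. Filter-captured radioactivity is read by phosphorimager; apparent Ki from competitive-inhibition fits.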

HCT-116 cell line = experiment: Inhibition of cell growth, tetrazolium salt (MTT) assay; type: cell-based; conditions: Homo sapiens, HCT-116, 120 h, MTT, three to five days, read-out: HCT-116 IC50
Summary of the method: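 Growth inhibition by MTT reduction at 540 nm (0.2 mg/mL, 4 h at 37° C, formazan dissolved in DMSO), normalized to cells given only 0.5% v/v DMSO. HCT-116 cultures in McCoy's 5A were dosed 4 h post-plating and kept three to five days at 37° C, 5% CO2.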

Chain of human CDK4 and genetically truncated (1-264) cyclin D3 (P11802 whole entry, the tested form may be a part): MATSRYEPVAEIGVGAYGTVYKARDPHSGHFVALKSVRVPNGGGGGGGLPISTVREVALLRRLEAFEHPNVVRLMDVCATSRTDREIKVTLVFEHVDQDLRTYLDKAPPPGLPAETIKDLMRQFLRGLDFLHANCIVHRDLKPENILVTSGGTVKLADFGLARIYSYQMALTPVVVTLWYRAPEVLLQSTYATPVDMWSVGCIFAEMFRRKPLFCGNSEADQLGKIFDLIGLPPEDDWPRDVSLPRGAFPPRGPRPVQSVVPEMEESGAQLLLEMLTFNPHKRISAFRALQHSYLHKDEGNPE
Chain of human CDK4 and genetically truncated (1-264) cyclin D3 (P30281 1-264 partner): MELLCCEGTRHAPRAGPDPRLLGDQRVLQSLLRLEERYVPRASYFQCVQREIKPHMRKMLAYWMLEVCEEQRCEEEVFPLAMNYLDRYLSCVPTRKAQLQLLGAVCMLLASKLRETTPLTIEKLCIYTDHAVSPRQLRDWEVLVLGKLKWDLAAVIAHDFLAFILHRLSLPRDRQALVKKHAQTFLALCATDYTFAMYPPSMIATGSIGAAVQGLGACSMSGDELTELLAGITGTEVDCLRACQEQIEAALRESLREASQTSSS

- pKi [1]: 9.24
- melting point: > 149 °C (dec.)
- pKi (CDK2/Cyclin A): 9.41
- pIC50 (HCT-116 cell line; first HCT-116 column (c4)): 6.92
- pIC50 (HCT-116 cell line; second HCT-116 column (c5)): 6.22
SMILES: Nc1nc(NC2CCN(S(=O)(=O)c3ccc(N4CCC[C@H](CO)C4)nc3)CC2)sc1C(=O)c1c(F)cccc1F [Example G18]
